Holding throughout (assay type): in vivo
Assay [1] deals with cotton melon aphid (Aphis gossypii Glover). In words: Test D: cotton melon aphid control on okra plants, insect mortality after 6 days. The settings on record: Aphis gossypii, read-out: % Mortality (obs). The procedure: The analysis of enhanced activity between the mixtures or compositions was determined using Colby's equation. The average % mortality data for the test compounds alone were inserted into the Colby's equation. If the observed (obs) average % mortality was higher than “p”, the expected (exp) % mortality, the mixture or composition had enhanced effects. If the observed average % mortality was equal to or lower than the expected mortality, the mixture or composition either had no enhanced effect. For bioassays where insect feeding damage was evaluated, enhanced activity is identified when the observed plant damage is less than the expected plant damage rating; ratings ranged between 0 (no damage) and 10 (dead plant) and each value was converted to a % plant protection. 100−(Obs Plant Damage*10)
For evaluating control of cotton melon aphid (Aphis gossypii Glover) through contact and/or systemic means, each test unit consisted of a small open container with a 6- to 7-day-old okra plant inside. This was pre-infested by placing on a leaf of the test plant 30 to 40 aphids on a piece of leaf excised from a culture plant (cut-leaf method). The […] moved onto the test plant as the leaf piece desiccated. After pre-infestation, the soil of the test unit was covered with a layer of sand.
Test compounds were formulated and sprayed as described for Test A. The applications were replicated three times. After spraying of the formulated test compounds, each test unit was allowed to dry for 1 hour and then a black, screened cap was placed on top. […]

In assay [2] the test system is Western Flower Thrips (Frankliniella occidentalis Pergande). In words: Test B: Western Flower Thrips control on bean plants, plant damage rating converted to % plant protection after 7 days. Particulars: for Plant Damage (obs): Table 3a; for Plant Damage (obs) / Plant Protection (obs): applied alone; for Plant Protection (obs): Table 3c. How it is done:
(§1) The pest control protection afforded by the mixtures or compositions is not limited, however, to these species. The analysis of enhanced activity between the mixtures or compositions was determined using Colby's equation. The average % mortality data for the test compounds alone were inserted into the Colby's equation. If the observed (obs) average % mortality was higher than “p”, the expected (exp) % mortality, the mixture or composition had enhanced effects. If the observed average % mortality was equal to or lower than the expected mortality, the mixture or composition either had no enhanced effect. For bioassays where insect feeding damage was evaluated, enhanced activity is identified when the observed plant damage is less than the expected plant damage rating; ratings ranged between 0 (no damage) and 10 (dead plant) and each value was converted to a % plant protection. 100−(Obs Plant Damage*10)
Thus, a plant given a plant damage rating of 3 out of 10 is equivalent to 70% plant protection In all of these tests, compounds of Formula I are Compounds 1 (Cpd 1), 2 (Cpd2), and 3 (Cpd3) and compounds of Formula II are compounds 4 (Cpd4) and 5 (Cpd 5).
For evaluating control of the Western Flower Thrips (Frankliniella occidentalis Pergande) through contact and/or systemic means, each test unit consisted of a small open container with a 5- to 7-day-old bean (var. Soleil) plant inside.
Test solutions were formulated and sprayed with 3 replications as described for Test A. After spraying, the test units were allowed to dry for 1 hour, 22 to 27 adult thrips were added to each unit and then a black, screened cap was placed on top. The test units were held for 7 days at 25° C. and 45-55% relative humidity. To evaluate the level of plant protection provided by each treatment, each test unit was then visually assessed for plant damage inflicted by insect feeding and rated 0-10, where 0=undamaged and 10=plant is dead; the results are listed in Tables 3a-g.

Assay [3] concerns Potato Leafhopper (Empoasca fabae Harris). In words: Test C: Potato Leafhopper control on bean plants, insect mortality after 6 days. Particulars: read-out: % Mortality (obs). How it is done:
as §1
For evaluating control of Potato Leafhopper (Empoasca fabae Harris) through contact and/or systemic means, each test unit consisted of a small open container with a 5- to 6-day-old Longio bean plant (primary leaves emerged) inside. White sand was added to the top of the soil, and one of the primary leaves was excised prior to application. Test compounds were formulated and sprayed with 3 replications as described for Test A. After spraying, the test units were allowed to dry for 1 hour before they were infested with 5 potato leafhoppers (18- to 21-day-old adults). A black, screened cap was placed on the top of each container. The test units were held for 6 days in a growth chamber at 19-21° C. and 50-70% relative humidity.

The test system of assay [4] is silverleaf whitefly (Bemisia argentifolii Bellows and Perring). In words: Test A: silverleaf whitefly control on cotton or soybean plants, spray, insect mortality after 13 days. Particulars: Bemisia argentifolii, read-out: % Mortality (obs). The procedure: as §1
For evaluating control of silverleaf whitefly (Bemisia argentifolii Bellows and Perring) through contact and/or systemic means, each test unit consisted of a small open container with a 12- to 14-day-old cotton plant or 5-7 day old soybean plant inside. This was pre-infested by placing test units into cages containing adult whiteflies so that oviposition on the cotton leaves could occur. The adults were removed from the plants with an air-blast nozzle, and the test units were capped. The test units were then stored 2 to 3 days before spraying.
Test compounds were formulated using a solution containing 10% acetone, 90% water and 300 ppm Activator 90@ Spreader Lo-Foam Formula non-ionic surfactant containing alkylarylpolyoxyethylene, free fatty acids, glycols and 2-propanol (Loveland Industries, Inc.) to provide the desired concentration in ppm. Formulated test solutions were then applied in 1 mL volumes through a SUJ2 atomizer nozzle with ⅛ JJ custom body (Spraying Systems Co.) positioned 1.27 cm (0.5 inches) above the top of each test unit.
The results for all experimental compositions in this test were replicated three times. After spraying of the formulated test composition, each test unit was allowed to dry for 1 hour and the cap removed. The test units were held for 13 days in a growth chamber at 28° C. and 50-70% relative humidity.

In assay [5] the test system is diamondback moth (Plutella xylostella L.). In words: Test E: diamondback moth control on mustard plants, contact and/or systemic, plant damage rating after 6 days. The procedure: as §1
For evaluating control of diamondback moth (Plutella xylostella L.) through contact and/or systemic means, each test unit consisted of a small open container with a 10- to 12-day-old mustard plant inside. Test compounds were formulated and sprayed with 3 replications as described for Test A. After spraying, the test units were allowed to dry for 1 hour before they were infested with 30-50 neonate larvae. A black, screened cap was placed on the top of each container. The test units were held for 6 days in a growth chamber at 24-25° C. and 70% relative humidity. Each test unit was then visually assessed for plant damage and rated 0-10, where 0=undamaged and 10=plant is dead; the results are listed in Tables 6a-b.

Assay [6] concerns corn planthopper (Peregrinus maidis (Ashmead)). In words: Test C: corn planthopper control on corn plants, insect mortality after 6 days. Particulars: Peregrinus maidis, 96 h, read-out: % Mortality (obs). The procedure: as §1
For evaluating control of corn planthopper (Peregrinus maidis (Ashmead)) through contact and/or systemic means, the test unit consisted of a small open container with a 3-4-day-old corn (maize) plant inside. White sand was added to the top of the soil prior to application of the test compound.
Test compounds were formulated and sprayed at 250 and/or 50 ppm and/or 10 ppm. After spraying of the formulated test compound, the test units were allowed to dry for 1 h before they were post-infested with ˜15-20 nymphs (18-to-21-day-old). […]

A word on the mortality: it is the percentage killed. Regarding `CNC(=O)c1cc(C#N)cc(C)c1NC(=O)c1cc(Br)nn1-c1ncccc1Cl` [Cyantraniliprole, 3-bromo-1-(3-chloro-2-pyridinyl)-N-[4-cyano-2-methyl-6-[(methylamino)carbonyl]phenyl]-1H-pyrazole-5-carboxamide, reference compound], in assay [1], the mortality at 0.06 ppm amounted to 21.1% and the mortality at 0.12 ppm was found to be 45.1%. Moreover, the “Plant Damage (obs)” value in assay [2] (0.08 ppm) was 6.7%. Further, in assay [2] (0.28 ppm), the “Plant Damage (obs)” value is listed as 43.3%. In assay [3], the mortality at 1.75 ppm was found to be 13.3% and the mortality at 3.3 ppm came out at 28.6%. Also, in assay [4], the mortality at 3 ppm was 29.1% and the mortality at 5.5 ppm was 61.1%. For the same compound, the “Plant Protection (obs)” value in assay [5] (Table 6a, 0.013 ppm) was determined as 73.3. In addition, the “Plant Protection (obs)” value in assay [5] (Table 6a, 0.02 ppm) worked out at 20.0.

`O=[N+]([O-])NC1=NCCN1Cc1ccc(Cl)nc1` [Imidacloprid, imidacloprid, reference compound]: in assay [1], the mortality at 0.05 ppm amounted to 33.3% and the mortality at 0.1 ppm is 6.7%. Moreover, the “Plant Protection (obs)” value in assay [2] (6.4 ppm) was 66.7%. Besides, the “Plant Protection (obs)” value in assay [2] (10.9 ppm) worked out at 86.7%. Moreover, in assay [3], the mortality at 0.82 ppm turned out to be 53.3% and the mortality at 2.25 ppm amounted to 40%. In addition, in assay [4], the mortality at 15.1 ppm stood at 0% and the mortality at 21.15 ppm is 24.7%. Moreover, in assay [6], the mortality at 0.09 ppm is 29.2% and the mortality at 0.16 ppm was 20%.

Turning to `CCOC(=O)OC1=C(c2cc(C)ccc2C)C(=O)N[C@]12CC[C@@H](OC)CC2` [Spirotetramat, spirotetramat, reference compound], in assay [1] (120 h), the mortality at 0.25 ppm was found to be 21.1% and the mortality at 0.85 ppm is 45.1%. In addition, the pest or weed control at 100 ppm in assay [2] (Frankliniella occidentalis, 168 h, Table 3d, 100 ppm, read-out: Plant Protection (obs)) amounted to 53.3%. Further, the pest or weed control at 250 ppm in assay [2] (Frankliniella occidentalis, 168 h, Table 3d, 250 ppm, read-out: Plant Protection (obs)) came to 73.3%. Besides, in assay [3], the mortality at 50 ppm amounted to 28.6% and the mortality at 250 ppm stood at 73.3%. In addition, in assay [4], the mortality at 50 ppm amounted to 2.1% and the mortality at 250 ppm came to 34.4%. The “Plant Protection (obs)” value in assay [5] (Table 6b, 83.2 ppm) is 73.3. For the same compound, the “Plant Protection (obs)” value in assay [5] (Table 6b, 150 ppm) was determined as 80.0.

The record behind these values is US12419307B2, “Mixtures comprising indazole pesticides” (FMC Corporation, priority 2019, dated 2025).
